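A five-concentration, 48-hour dose response in 96-well plates underlies each endpoint, interpolated linearly between surrounding concentrations. At the GI50, growth is halved.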 Activity calls are given as the source filed them. Rule as the data show it: active = GI50 up to about 1.1 µM and inactive = higher.

Common to all, as to assay: NCI tumour cell line growth inhibition, 48 h
For experiment [1], the system named is TK-10.
Experiment [2] deals with SK-OV-3.
In experiment [3] the test system is 786-0.
Experiment [4] relates to OVCAR-8.
Experiment [5] relates to HOP-92.
In experiment [6] the test system is MDA-MB-231.
Experiment [7] relates to K562.
Experiment [8] deals with RPMI-8226.
Experiment [9] concerns M14.
The subject of experiment [10] is MCF7.
Experiment [11] deals with EKVX.
The test system of experiment [12] is COLO 205.
The test system of experiment [13] is UACC-62.
In experiment [14] the test system is SF-295.
For experiment [15], the system named is SK-MEL-28.
Experiment [16] relates to SF-539.
In experiment [17] the test system is IGROV-1.
Experiment [18] has as its system RXF 393.
In experiment [19] the test system is SNB-75.
For experiment [20], the system named is SW-620.

Consider `COc1ccc(/C=N/n2c(Cc3ccccc3)n[nH]c2=O)c(OC)c1`, for which the GI50 in experiment [1] is 27.3 µM (inactive); in [2] it was 29.2 µM (inactive); in [3], 31 µM (inactive); in experiment [4] it was 24.7 µM (inactive); in [5], 24.2 µM (inactive); in experiment [6] it was 36.7 µM (inactive). Also, the GI50 in experiment [7] is > 100 µM (inactive); in [8], > 100 µM (inactive); in experiment [9] it was 51.8 µM (inactive); in experiment [10], > 100 µM (inactive); in experiment [11] it was > 57.9 µM (inactive); in experiment [12], > 31.6 µM (inactive). The GI50 is > 88.3 µM (inactive) in experiment [13]; 15.3 µM (inactive) in experiment [14]; > 100 µM (inactive) in experiment [15]; 28.8 µM (inactive) in experiment [16]; 28.8 µM (inactive) in experiment [17]; 9.98 µM (inactive) in [18]. In addition, the GI50 in experiment [19] is 9.71 µM (inactive); in [20], > 85.9 µM (inactive).

`CC1=C(C)SC(=C2Sc3c(n(C)c(=O)n(C)c3=O)S2)S1`: the GI50 is 27.9 µM (inactive) in experiment [1]; 15.5 µM (inactive) in experiment [2]; 17.4 µM (inactive) in [3]; 23.6 µM (inactive) in experiment [4]; 53.7 µM (inactive) in experiment [5]; 22.7 µM (inactive) in experiment [6]. For the same compound, the GI50 in experiment [7] was 62.7 µM (inactive); in experiment [8], > 100 µM (inactive); in [9], > 100 µM (inactive); in [10], > 100 µM (inactive); in experiment [11] it was > 100 µM (inactive); in [12], 89.9 µM (inactive). Further, the GI50 in experiment [13] is 44.7 µM (inactive); in experiment [14], 28.7 µM (inactive); in [15] it was > 100 µM (inactive); in experiment [16] it was 13.2 µM (inactive); in experiment [17] it was 59.2 µM (inactive); in experiment [18] it was 48.4 µM (inactive). The GI50 in [19] is 20.7 µM (inactive); in experiment [20], > 100 µM (inactive).

As for `Cc1cccc2c(N)c3cccc(C(=O)NCC[N+](C)(C)Cc4ccc([N+](=O)[O-])s4)c3nc12`, the GI50 in experiment [1] was 20.4 µM (inactive); in [2], 19.6 µM (inactive); in [3] it was 1.98 µM (inactive); in experiment [4] it was 9.29 µM (inactive); in [5], 16 µM (inactive); in experiment [6], 4.42 µM (inactive). Also, the GI50 is 2.88 µM (inactive) in [7]; 2.62 µM (inactive) in experiment [8]; 16.5 µM (inactive) in [9]; 2.23 µM (inactive) in [10]; 14.1 µM (inactive) in [11]; 4.9 µM (inactive) in [12]. In addition, the GI50 in experiment [13] was 16.5 µM (inactive); in experiment [14], 9.64 µM (inactive); in experiment [15], 33 µM (inactive); in [16], 4.93 µM (inactive); in experiment [17] it was 2.85 µM (inactive); in [18], 8.36 µM (inactive). For the same compound, the results for the GI50 in experiment [19] and in experiment [20] were 17.2 µM (inactive) and 5.4 µM (inactive), respectively.

In the case of `Clc1ccccc1/C=C\C1(c2ccccc2)OCCO1`, the GI50 in experiment [1] was 22.2 µM (inactive); in experiment [2], 29.8 µM (inactive); in [3] it was 16.5 µM (inactive); in [4], 17.7 µM (inactive); in experiment [5], 28.9 µM (inactive); in experiment [6], 12.7 µM (inactive). In addition, the GI50 in [7] was 16.7 µM (inactive); in experiment [8], 4.2 µM (inactive); in experiment [9], > 100 µM (inactive); in experiment [10], 2.77 µM (inactive); in experiment [11], 19.1 µM (inactive); in [12] it was 21.3 µM (inactive). Further, the GI50 was 15.7 µM (inactive) in experiment [13]; 16.7 µM (inactive) in experiment [14]; 21.1 µM (inactive) in experiment [15]; 24.9 µM (inactive) in experiment [16]; 14.2 µM (inactive) in experiment [17]; 19.1 µM (inactive) in experiment [18]. For the same compound, the results for the GI50 in [19] and in [20] were 19 µM (inactive) and 16.1 µM (inactive), respectively.

For `NC(=S)NN=C1Cc2ccccc2C1`, the GI50 in experiment [1], in [2], in experiment [3], in experiment [4], in experiment [5] and in [6] was > 100 µM (inactive) each time. Besides, the GI50 in experiment [7] was > 100 µM (inactive); in [8] it was > 100 µM (inactive); in experiment [9], > 100 µM (inactive); in [10], > 100 µM (inactive); in experiment [11], 42.3 µM (inactive); in [12] it was > 100 µM (inactive). Also, the GI50 in experiment [13], in experiment [14], in experiment [15], in [16], in experiment [17] and in [18] was > 100 µM (inactive) each time. The GI50 in experiment [19] and in experiment [20] was > 100 µM (inactive) throughout.

Turning to `O=c1oc2ncccc2n1Cc1ccc([N+](=O)[O-])cc1`, the GI50 in experiment [1], in [2], in experiment [3], in experiment [4], in experiment [5] and in [6] was > 100 µM (inactive) each time. For the same compound, the GI50 in experiment [7], in experiment [8], in [9], in [10], in experiment [11] and in experiment [12] was > 100 µM (inactive) each time. Further, the GI50 in [13], in [14], in [15], in [16], in experiment [17] and in [18] was > 100 µM (inactive) throughout. In addition, the GI50 in [19] was 80.7 µM (inactive); in experiment [20] it was > 100 µM (inactive).

As to `Oc1ccc2ccccc2c1-c1c(Nc2ccccc2)ccc2ccccc12`, the GI50 is 16.9 µM (inactive) in [1]; 6.08 µM (inactive) in experiment [2]; 17.8 µM (inactive) in experiment [3]; 16.6 µM (inactive) in experiment [4]; 1.32 µM (inactive) in experiment [5]; 0.498 µM (active) in experiment [6]. The GI50 was 13.7 µM (inactive) in [7]; 17.8 µM (inactive) in [8]; 11.7 µM (inactive) in experiment [9]; 13 µM (inactive) in [10]; 16.9 µM (inactive) in [11]; 19.9 µM (inactive) in experiment [12]. Also, the GI50 in [13] was 14.9 µM (inactive); in [14], 16.8 µM (inactive); in experiment [15], 13.9 µM (inactive); in [16], 14 µM (inactive); in experiment [17], 5.73 µM (inactive); in experiment [18] it was 17.2 µM (inactive). For the same compound, the values for the GI50 in experiment [19] and in [20] were 16.1 µM (inactive) and 11.4 µM (inactive), respectively.

The values are drawn from ChEMBL document CHEMBL1201862, “PubChem BioAssay data set” (2004).
